Assay results published in the NIST ThermoML archive (doi:10.1016/j.tca.2009.01.008).

How the values were obtained:
[1] = molar heat capacity at constant pressure; settings: 101.33 kPa, Liquid, Vacuum adiabatic calorimetry
[2] = molar heat capacity at constant pressure; xn = mol fraction of the nth substance listed; settings: 101 kPa, Liquid, Vacuum adiabatic calorimetry

OCCOCCO [diethylene glycol]
[1]
Settings	molar heat capacity at constant pressure [J/K/mol]
303.15 K	248.2
313.15 K	251.3
323.15 K	255
333.15 K	259.2
343.15 K	263.8
353.15 K	266.8

CC(O)CO (centres undefined) [1,2-propanediol] + O
molar heat capacity at constant pressure [J/K/mol], [2]
Settings	303.15 K	313.15 K	323.15 K	333.15 K	343.15 K	353.15 K
x1 = 0.2	101.9	103	104.3	105.8	107.2	108.8
x1 = 0.4	127	129.4	132.1	134.9	137.7	140.7
x1 = 0.5	138.9	141.9	145.1	148.7	152.1	155.6
x1 = 0.6	150.3	153.9	157.7	161.8	165.8	169.9
x1 = 0.8	172.1	176.4	180.9	185.8	190.6	195.5

OCCCOCCCO [4-oxa-1,7-heptanediol] + O
molar heat capacity at constant pressure [J/K/mol], [2]
Settings	303.15 K	313.15 K	323.15 K	333.15 K	343.15 K	353.15 K
x1 = 0.2	129.1	130.8	132.7	135	137.1	139.5
x1 = 0.4	181.8	184.9	188.2	191.9	195.5	199.6
x1 = 0.5	207.2	210.9	214.7	219.3	223.5	228.3
x1 = 0.6	231.9	236.2	240.7	245.8	250.8	256.3
x1 = 0.8	279.7	285	290.4	296.6	302.7	309.4

OCCCOCCCO [4-oxa-1,7-heptanediol]
[1]
Settings	molar heat capacity at constant pressure [J/K/mol]
303.15 K	329
313.15 K	335.3
323.15 K	341.5
333.15 K	348.8
343.15 K	355.8
353.15 K	363.8

CC(O)CO (centres undefined) [1,2-propanediol]
[1]
Settings	molar heat capacity at constant pressure [J/K/mol]
303.15 K	192.8
313.15 K	197
323.15 K	201.3
333.15 K	206
343.15 K	210.6
353.15 K	215.3

OCCOCCOCCO [triethylene glycol] + O
molar heat capacity at constant pressure [J/K/mol], [2]
Settings	303.15 K	313.15 K	323.15 K	333.15 K	343.15 K	353.15 K
x1 = 0.2	129.3	131	132.9	135.1	137.2	139.7
x1 = 0.4	184.1	186.3	189	192.1	195.2	198.7
x1 = 0.5	211.3	213.6	216.5	219.8	223.4	227.3
x1 = 0.6	237.8	240.5	243.7	249.7	251.8	256.1
x1 = 0.8	288.3	291.8	295.7	300.3	306	311.3

OCCOCCOCCO [triethylene glycol]
[1]
Settings	molar heat capacity at constant pressure [J/K/mol]
303.15 K	336.3
313.15 K	339.5
323.15 K	343.1
333.15 K	347.9
343.15 K	353.7
353.15 K	359.3

OCCOCCO [diethylene glycol] + O
molar heat capacity at constant pressure [J/K/mol], [2]
Settings	303.15 K	313.15 K	323.15 K	333.15 K	343.15 K	353.15 K
x1 = 0.2	111.8	113.5	115.3	117.4	119.3	121.7
x1 = 0.4	148.7	150.7	153.3	155.9	158.7	161.8
x1 = 0.5	167.6	169.9	172.6	175.5	178.7	182.2
x1 = 0.6	184.5	187.1	190.3	193.6	197.3	201.2
x1 = 0.8	217.9	221.2	225	229.1	233.6	238.5
